Test results published in ChEMBL document CHEMBL2176976, “Ethylenediamine diacetate (EDDA) mediated synthesis of aurones under ultrasound: their evaluation as inhibitors of SIRT1” (Bioorg Med Chem Lett, 2012).

How the values were obtained:
MDA-MB-231 = experiment: Cytotoxicity against human MDA-MB-231 cells assessed as growth inhibition at 10 uM after 24 hrs by MTT assay (reference value: 0.23 %); assay type: functional; conditions: MDA-MB-231, 24 h, read-out: GI
MCF7 = experiment: Cytotoxicity against human MCF7 cells assessed as growth inhibition at 10 uM after 24 hrs by MTT assay (reference value: 0.15 %); assay type: functional; conditions: MCF7, 24 h, read-out: GI
[1] = molecular target: T1, NAD-dependent protein deacetylase sirtuin-1 (Homo sapiens) (UniProt Q96EB6); experiment: Inhibition of full length recombinant human SIRT1 expressed in Escherichia coli BL21 (DE3) PLysS using Fluor-de-Lys as substrate at 10 uM by fluorimetric assay
T1 sequence (whole entry): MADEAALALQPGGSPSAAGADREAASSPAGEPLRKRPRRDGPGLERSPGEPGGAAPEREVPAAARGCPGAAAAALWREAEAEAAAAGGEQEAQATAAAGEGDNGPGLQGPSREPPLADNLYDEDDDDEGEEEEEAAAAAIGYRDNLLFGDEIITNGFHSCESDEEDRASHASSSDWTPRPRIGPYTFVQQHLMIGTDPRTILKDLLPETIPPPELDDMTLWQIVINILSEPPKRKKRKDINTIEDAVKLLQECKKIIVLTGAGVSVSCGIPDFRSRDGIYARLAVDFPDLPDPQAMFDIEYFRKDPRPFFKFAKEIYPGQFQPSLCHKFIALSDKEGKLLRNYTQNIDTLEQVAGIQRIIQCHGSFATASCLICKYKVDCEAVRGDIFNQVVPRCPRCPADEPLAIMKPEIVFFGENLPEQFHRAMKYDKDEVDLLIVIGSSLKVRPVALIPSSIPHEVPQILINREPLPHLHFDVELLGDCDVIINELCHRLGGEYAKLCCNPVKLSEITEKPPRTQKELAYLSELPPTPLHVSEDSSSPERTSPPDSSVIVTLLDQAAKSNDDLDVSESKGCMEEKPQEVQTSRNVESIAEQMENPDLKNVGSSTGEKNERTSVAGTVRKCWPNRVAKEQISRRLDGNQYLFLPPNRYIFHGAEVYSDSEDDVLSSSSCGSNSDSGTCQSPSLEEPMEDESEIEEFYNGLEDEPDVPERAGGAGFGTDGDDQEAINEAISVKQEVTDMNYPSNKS

[2] = molecular target: T2, NAD-dependent protein deacetylase sirtuin-2 (Homo sapiens, UniProt Q8IXJ6); experiment: Inhibition of human SIRT2
T2 sequence (Q8IXJ6 whole entry): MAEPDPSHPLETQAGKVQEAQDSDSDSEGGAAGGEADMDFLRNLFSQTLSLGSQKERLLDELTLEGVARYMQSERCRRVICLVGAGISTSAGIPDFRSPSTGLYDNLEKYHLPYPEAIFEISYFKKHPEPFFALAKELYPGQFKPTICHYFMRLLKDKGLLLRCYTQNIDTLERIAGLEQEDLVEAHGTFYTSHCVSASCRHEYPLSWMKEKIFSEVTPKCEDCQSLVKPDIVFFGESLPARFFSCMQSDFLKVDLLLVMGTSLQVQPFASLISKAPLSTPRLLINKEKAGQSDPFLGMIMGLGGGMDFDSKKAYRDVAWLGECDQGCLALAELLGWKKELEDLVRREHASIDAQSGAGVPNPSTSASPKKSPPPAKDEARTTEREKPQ

How did the inhibition of growth at 10 µM (MDA-MB-231) turn out when `Cc1ccc(C(=O)Nc2ccc(S(=O)(=O)O)c3cc(S(=O)(=O)O)cc(S(=O)(=O)O)c23)cc1NC(=O)c1cccc(NC(=O)Nc2cccc(C(=O)Nc3cc(C(=O)Nc4ccc(S(=O)(=O)O)c5cc(S(=O)(=O)O)cc(S(=O)(=O)O)c45)ccc3C)c2)c1` [SURAMIN] was run?
The inhibition of growth at 10 µM was 26%.

And the inhibition of growth at 10 µM (MCF7)?
The inhibition of growth at 10 µM was 32%.

`O=C1/C(=C/c2ccc(Br)cc2)Oc2ccccc21` was tested. Which inhibition of growth at 10 µM (MDA-MB-231) did it give?
Its inhibition of growth at 10 µM is 30.8%.

And the inhibition of growth at 10 µM (MCF7)?
Its inhibition of growth at 10 µM is 34.5%.

And the inhibition [1]?
Its inhibition is 71%.

With `COc1ccc(/C=C2\Oc3ccccc3C2=O)cc1` [4'-METHOXY-AURONE] as the compound, how does the inhibition of growth at 10 µM (MDA-MB-231) read?
The inhibition of growth at 10 µM was 18.1%.

And the inhibition of growth at 10 µM (MCF7)?
Its inhibition of growth at 10 µM is 29.6%.

What about the inhibition [1] of the same compound?
Its inhibition is 32.5%.

`O=C1NC(=S)NC(=O)C1=Cc1cccc2ccccc12` was tested. Which IC50 [2] did it give?
Its IC50 is 10 µM.

What does the source list for `O=C1/C(=C/c2ccc(F)cc2)Oc2ccccc21`?
inhibition of growth at 10 µM (MDA-MB-231): 16.5%; inhibition of growth at 10 µM (MCF7): 20.1%; inhibition [1]: 50.5%
